In PMC6271944 (Molecules, 2014):

How the values were obtained:
rat CYP1A2 = conditions: cited from earlier work
CYP2C79 = experiment: CYP inhibition in rat liver microsomes, substrate cocktail, LC-MS/MS (S-mephenytoin); type: in vitro ADME; conditions: pH 7.4, probe S-mephenytoin 200 μM, 95% CI in brackets, read-out: IC50 for RLM, CYP2C79 (table row CYP2C19)
Text: (§1) Positive controls (furafyline for CYP1A2, montelukast for CYP2C8, sulfaphenazole for CYP2C9, S-(+)-N-3-benzylnirvanol for CYP2C19, quinidine for CYP2D6, ketoconazole for CYP3A4) and specific substrates (phenacetin for CYP1A2, paclitaxel for CYP2C8, diclofenac for CYP2C9, S-mephenytoin for CYP2C19, dextromethorphan for CYP2D6, midazolam for CYP3A4) are consistent with our previous papers. The substrates were used at concentrations approximately equal to their respective Michaelis-Menten constant (Km) values: 10 μM phenacetin, 5 μM paclitaxel, 5 μM diclofenac, 200 μM S-mephenytoin, 5 μM dextromethorphan, and 2 μM midazolam. NADP^+ was added after a 15 min preincubation of all other components at 37 °C. After a given incubation time (30 min), the reactions were terminated by addition of 60 μL ice-cold acetonitrile containing gemfibrozil and buspirone as internal standards. Incubation samples were stored at −80 °C until used in liquid chromatography-tandem mass spectrometry (LC-MS/MS) analysis. The mixture was centrifuged at 3,500 rpm for 5 min. The supernatant was mixed with equal volume of a 1:1 mixture of methanol and water and 20 μL of the final mixture was used for LC-MS/ MS analysis. […]
(§2) The CYP inhibition potential were evaluated by measuring the formation of one or more metabolites of the test substrates. […]

UGT1A9 = test system: UGT1A9; design: dose or concentration left out as unconfirmed; conditions: cited from earlier work
CYP3A4 = molecular target: T1, CYP3A4 (Homo sapiens, UniProt P08684); experiment: CYP inhibition in human liver microsomes, substrate cocktail, LC-MS/MS (midazolam); type: in vitro ADME; conditions: metabolite 1-hydroxymidazolam, read-out: IC50 for HLM, CYP3A4
T1 construct: Pooled human liver microsomes (HLM, LOT 32556) were purchased from BD Gentest Corporation; tissue BD Gentest Corporation LOT 32556; host or cells: pooled human liver microsomes
T1 sequence (P08684 whole entry): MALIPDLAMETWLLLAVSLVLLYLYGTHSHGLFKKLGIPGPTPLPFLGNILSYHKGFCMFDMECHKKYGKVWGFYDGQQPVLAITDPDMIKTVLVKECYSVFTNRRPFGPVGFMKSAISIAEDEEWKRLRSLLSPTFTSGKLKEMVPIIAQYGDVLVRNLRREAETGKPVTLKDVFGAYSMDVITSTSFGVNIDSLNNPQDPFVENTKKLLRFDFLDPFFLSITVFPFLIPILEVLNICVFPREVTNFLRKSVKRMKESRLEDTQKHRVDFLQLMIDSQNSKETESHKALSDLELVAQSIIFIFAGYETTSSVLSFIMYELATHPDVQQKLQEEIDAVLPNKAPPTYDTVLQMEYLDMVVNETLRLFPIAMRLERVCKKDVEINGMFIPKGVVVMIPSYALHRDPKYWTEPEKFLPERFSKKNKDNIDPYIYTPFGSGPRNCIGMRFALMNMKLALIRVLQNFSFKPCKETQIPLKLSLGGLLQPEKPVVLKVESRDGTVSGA
Text: as §1, §2

CYP2C7 = molecular target: T2, CYP2C7 (Rattus norvegicus, UniProt P05179); experiment: CYP inhibition in rat liver microsomes, substrate cocktail, LC-MS/MS (paclitaxel); type: in vitro ADME; conditions: 95% CI in brackets, read-out: IC50 for RLM, CYP2C7 (table row CYP2C8)
T2 construct: Pooled rat liver microsomes were prepared from three male Sprague-Dawley rats; from tissue; host or cells: pooled liver microsomes of three male Sprague-Dawley rats, prepared at HD Biosciences Co
T2 sequence (P05179 1-490): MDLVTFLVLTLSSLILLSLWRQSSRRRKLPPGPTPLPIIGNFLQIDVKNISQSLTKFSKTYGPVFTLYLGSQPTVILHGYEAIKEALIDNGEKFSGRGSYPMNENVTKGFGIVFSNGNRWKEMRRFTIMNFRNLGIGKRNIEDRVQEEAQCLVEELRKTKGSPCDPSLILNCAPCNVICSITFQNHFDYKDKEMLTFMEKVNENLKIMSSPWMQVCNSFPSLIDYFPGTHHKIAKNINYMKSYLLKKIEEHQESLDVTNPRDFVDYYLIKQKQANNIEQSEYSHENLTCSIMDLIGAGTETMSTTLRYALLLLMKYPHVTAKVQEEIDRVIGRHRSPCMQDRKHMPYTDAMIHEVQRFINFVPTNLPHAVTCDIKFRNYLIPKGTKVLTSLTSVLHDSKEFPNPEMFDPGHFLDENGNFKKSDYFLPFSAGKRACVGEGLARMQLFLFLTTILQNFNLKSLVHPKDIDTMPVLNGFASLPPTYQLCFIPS
Text: as §1, §2

UGT2B7 = test system: UGT2B7; design: dose or concentration left out as unconfirmed; conditions: cited from earlier work
WM-266-4 cells = experiment: Cytotoxicity on WM-266-4 cells; type: cell-based, human; conditions: even at highest concentration
UGT1A1 = test system: UGT1A1; design: dose or concentration left out as unconfirmed; conditions: cited from earlier work
CYP2C11 = molecular target: T3, CYP2C11 (Rattus norvegicus, UniProt P08683); experiment: CYP inhibition in rat liver microsomes, substrate cocktail, LC-MS/MS (diclofenac); type: in vitro ADME; conditions: pH 7.4, probe diclofenac 5 μM, read-out: IC50 for RLM, CYP2C11 (table row CYP2C9)
T3 sequence (P08683 1-500): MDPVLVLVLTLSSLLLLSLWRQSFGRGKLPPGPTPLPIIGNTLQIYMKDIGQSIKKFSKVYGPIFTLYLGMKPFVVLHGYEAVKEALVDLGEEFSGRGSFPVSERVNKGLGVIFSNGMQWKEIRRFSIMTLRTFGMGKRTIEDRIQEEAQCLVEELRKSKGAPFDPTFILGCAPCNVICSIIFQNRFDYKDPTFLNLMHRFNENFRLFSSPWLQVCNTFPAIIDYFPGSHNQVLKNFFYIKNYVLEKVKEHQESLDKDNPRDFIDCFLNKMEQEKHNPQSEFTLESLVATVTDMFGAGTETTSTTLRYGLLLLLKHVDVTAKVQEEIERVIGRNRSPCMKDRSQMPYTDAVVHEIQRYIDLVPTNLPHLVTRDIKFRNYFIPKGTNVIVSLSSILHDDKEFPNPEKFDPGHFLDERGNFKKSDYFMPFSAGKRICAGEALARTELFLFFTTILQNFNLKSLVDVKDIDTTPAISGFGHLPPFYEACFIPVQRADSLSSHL
Text: as §1, §2

CYP2C9 = molecular target: T4, CYP2C9 (Homo sapiens, UniProt P11712); experiment: CYP inhibition in human liver microsomes, substrate cocktail, LC-MS/MS (diclofenac); type: in vitro ADME; conditions: metabolite 4-hydroxydiclofenac, read-out: IC50 for HLM, CYP2C9
T4 construct: Pooled human liver microsomes (HLM, LOT 32556) were purchased from BD Gentest Corporation; tissue BD Gentest Corporation LOT 32556; host or cells: pooled human liver microsomes
T4 sequence (P11712 whole entry): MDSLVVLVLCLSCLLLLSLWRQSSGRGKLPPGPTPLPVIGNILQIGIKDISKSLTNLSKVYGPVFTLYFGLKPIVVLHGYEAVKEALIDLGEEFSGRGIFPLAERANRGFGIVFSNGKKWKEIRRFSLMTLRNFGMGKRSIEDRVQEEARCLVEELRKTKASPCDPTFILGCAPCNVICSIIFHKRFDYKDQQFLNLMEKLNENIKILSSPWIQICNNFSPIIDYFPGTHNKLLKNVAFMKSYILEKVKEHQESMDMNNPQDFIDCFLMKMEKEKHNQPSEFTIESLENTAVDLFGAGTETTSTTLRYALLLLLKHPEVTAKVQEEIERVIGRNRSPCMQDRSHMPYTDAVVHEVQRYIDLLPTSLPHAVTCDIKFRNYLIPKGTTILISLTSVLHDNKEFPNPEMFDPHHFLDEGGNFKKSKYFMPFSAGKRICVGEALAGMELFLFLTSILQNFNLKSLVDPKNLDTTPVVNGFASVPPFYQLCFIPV
Text: as §1, §2

SMILES: O=C(O)[C@H]1O[C@@H](Oc2cc3oc(-c4ccc(O)cc4)cc(=O)c3c(O)c2O)[C@H](O)[C@@H](O)[C@@H]1O [scutellarin, Scutellarin]
- IC50 (rat CYP1A2; in vitro experiments): 108.2 ± 0.657 µM
- Ki (rat CYP1A2; weak mixed-type inhibition, read-out: Ki against the activity of CYP1A2): 95.2 µM
- IC50 at 30 min (CYP2C79): 85.6 µM
- inhibition towards the activity of UGT1A9 (UGT1A9): 36.1%
- IC50 (CYP3A4): > 100 µM
- IC50 (CYP2C7): 63.1 µM
- inhibition towards the activity of UGT2B7 (UGT2B7): 73.8%
- cytotoxicity on WM-266-4 cells (WM-266-4 cells): does not show cytotoxicity
- inhibition towards the activity of UGT1A1 (UGT1A1): 48.8%
- IC50 at 30 min (CYP2C11): > 100 µM
- IC50 (CYP2C9): > 100 µM
